Values quoted from earlier work as cited in patent US9854807B2, “Potentiation of fixed coppers and other pesticides containing copper and supplementing plant nutrition” (priority 2014, dated 2018).

Conditions: terms used by Richardson

For `[Cl-].[Cu+2].[Cu+2].[OH-].[OH-].[OH-]` [Copper(2) Oxychloride], the solubility in water is given as “essentially insoluble in water”.
